In US20240327415A1, “Multicomponent Complexes, Including Salts, Crystalline Forms, and Hydrates and Solvates of ENT1 Inhibitors” (iTeos Belgium SA, priority 2023, published 2024):

Legend:
Type in all cases: physicochemical
[1] = seven-day solid stability studies (ambient; 40° C./75% RH; 80° C.), XRPD and HPLC
Description: In the experiment, one set of vials was exposed to ambient light, temperature and humidity conditions. Another was exposed openly to 40° C. and 75% RH conditions and a third was sealed and exposed to 80° C. conditions. After 7 days, XRPD and HPLC measurements were collected.
Example 12-Stability Studies of Amorphous Compound 1 (free base) and Crystalline Form 1 Compound 1 (free base): Seven-day stability studies were carried out comparing amorphous Compound 1 (free base) and crystalline Form 1 Compound 1 (free base) at 40° C./75% RH, under ambient conditions and at 80° C. After storage at 40° C./75% RH and 80° C., the amorphous material formed glassy solids which were pale yellow (40° C./75% RH) or orange (80° C.). It is likely that the material melted and re-solidified at 80° C. and deliquesced at 40° C./75% RH. […] (decrease in purity of ca. 11% area).
Example 15-Stabilities Studies-Crystalline Form 3 Compound 1 di(hydrogen sulfate) and Crystalline Form 4 Compound 1 mono(hydrogen sulfate): Seven-day stability studies were carried out on the prepared crystalline Form 3 Compound 1 di(hydrogen sulfate) and crystalline Form 4 Compound 1 mono(hydrogen sulfate) using the following conditions: (1) Ambient light, temperature and humidity conditions (open vial); (2) 40° C./75% RH (open vial); and (3) 80° C. (closed vial). After 7 days of storage under the specified conditions, XRPD and HPLC analyses were carried out on the residual solid materials, and the results are summarized in Table 51.
Example 18-Seven Day Stability Study on Crystalline Form 2 Compound 1 di(hydrogen sulfate) trihydrate: A 7-day stability study was conducted on crystalline Form 2 Compound 1 di(hydrogen sulfate) trihydrate using the following conditions: (1) ambient light, temperature, and humidity conditions (open vial); (2) 40° C., 75% RH (open vial); and (3) 80° C. (closed vial). After 7 days of storage under the specified, XRPD and HPLC analyses were carried out on the residual solid materials.

[2] = Variable Temperature X-Ray Powder Diffraction (VT-XRPD)
Description: (§1) In the examples below, VT-XRPD analysis was carried out on a Philips X'Pert Pro Multipurpose diffractometer equipped with a temperature chamber. The samples were scanned between 4 and 36° 2θ using Cu K radiation (α1 λ=1.54060 Å; α2=1.54443 Å; β=1.39225 Å; α1: α2 ratio=0.5; most, if not all, B radiation is removed from the beam using an X-ray mirror) running in Bragg-Brentano geometry (step size 0.008° 2θ) using 40 kV/40 mA generator settings. Measurements were carried out from ambient temperature to an upper limit of 250° C., with a final measurement taken after cooling.
as §1, with “VT-XRPD” for “In the examples below, VT-XRPD”, “Å; β2=1.39225” for “Å; β=1.39225”, “Å; α1:α2” for “Å; α1: α2”, “all, β” for “all, B”

[3] = Dynamic Vapor Sorption (DVS); conditions: for post-DVS sample (XRPD / appearance): DVS at 25° C.
Description: (§2) METHOD A: In Example 11, approximately 5-15 mg of sample was placed into a mesh vapor sorption balance pan and loaded into either a DVS Intrinsic or DVS Advantage dynamic vapor sorption balance by Surface Measurement Systems. The sample was subjected to a ramping profile from 40-90% relative humidity (RH) at 10% increments, maintaining the sample at each step until a stable weight had been achieved (dm/dt 0.004%, minimum step length 30 minutes, maximum step length 500 minutes) at 25° C. After completion of the sorption cycle, the sample was dried using the same procedure to 0% RH and then a second sorption cycle back to 40% RH was carried out. Two cycles were performed. The weight change during the sorption/desorption cycles were plotted, allowing the hygroscopic nature of the sample to be determined. XRPD analysis was then carried out on the residual solid.
as §2, with “B:” for “A:”, “Examples 2A, 3, 14, and 17,” for “Example 11,”, “10-20” for “5-15”, “determined.” for “determined. XRPD analysis was then carried out on the residual solid.”
as §2, with “Approximately 10-20” for “METHOD A: In Example 11, approximately 5-15”, “RH” for “relative humidity (RH)”, “min,” for “minutes,”, “min)” for “minutes)”, “determined.” for “determined. XRPD analysis was then carried out on the residual solid.”

[4] = 7 days, 40° C./75% RH (open vial)

COc1cc(C(=O)O[C@@H]2CCCOc3cc(cc(OC)c3OC)C(=O)NCCCN3CCCN(CC2)CC3)cc(OC)c1OC.O=S(=O)(O)O.O=S(=O)(O)O [crystalline Form 3 Compound 1 di(hydrogen sulfate)]
7-day Stability studies: Purity compared to input [1]: Purity similar | solid form by XRPD after storage ([1]; 7 days, 40° C./75% RH): Conversion to crystalline Form 2 Compound 1 di(hydrogen sulfate) trihydrate | solid form by XRPD after storage ([1]; 7 days, 80° C.): mixture of crystalline Form 3 Compound 1 di(hydrogen sulfate) and crystalline Form 9 Compound 1 di(hydrogen sulfate) | solid form by XRPD after storage ([1]; 7 days, ambient conditions): conversion to crystalline Form 6 Compound 1 di(hydrogen sulfate) | 7-day Stability studies: solid form ([1]; at 80° C.): Form 9 at 80 °C | 7-day Stability studies: solid form ([1]; at ambient): Form 6 at ambient; | VT-XRPD: Conv. To Form 9 from [2]: from 50-160 °C | VT-XRPD: Melt from [2]: Melt from 160 °C | VT-XRPD: input form retained at [2]: at 25-50 °C | temperature range in which the form is retained (VT-XRPD) [2]: 25-40 °C | VT-XRPD Results ([2]; Heating, 50° C., hold 30 min): 3 (trace of 9) | DVS: solid form conversion [3]: Conversion to P2 | post-DVS sample (XRPD / appearance) [3]: conversion to crystalline Form 2 Compound 1 di(hydrogen sulfate) trihydrate | DVS uptake ([3]; at 80% RH): 7.3% uptake at | moisture uptake (DVS) ([3]; between 0-10% RH, 25° C.): about 5.2% | moisture uptake (DVS) ([3]; between 10-80% RH, 25° C.): ca. 2.1% | moisture uptake (DVS) ([3]; between 40-80% RH, first sorption cycle, 25° C.): ca. 7.1%

COc1cc(C(=O)O[C@@H]2CCCOc3cc(cc(OC)c3OC)C(=O)NCCCN3CCCN(CC2)CC3)cc(OC)c1OC.O=S(=O)(O)O
7-day Stability studies: Purity compared to input [1]: Purity similar | solid form by XRPD after storage ([1]; 7 days, 40° C./75% RH): retained | solid form by XRPD after storage ([1]; 7 days, 80° C.): predominantly amorphous | solid form by XRPD after storage ([1]; 7 days, ambient conditions): retained | 7-day Stability studies: solid form ([1]; all conditions): Form 4 retained | 7-day Stability studies: crystallinity ([1]; at 80° C., printed 'crystallinity significantly reduced'): reduced at 80° C.) | VT-XRPD: Conv. To Form 8 at [2]: at 40-70 °C | VT-XRPD: Conversion to amorph. At [2]: amorph. At ≥90 °C | temperature above which the sample turned amorphous [2]: greater than 90 °C | temperature range of conversion to crystalline Form 8 Compound 1 mono(hydrogen sulfate) [2]: 40-70 °C | post-DVS sample (XRPD / appearance) [3]: conversion to crystalline Form 8 Compound 1 mono(hydrogen sulfate) | DVS: Conversion to (solid form) ([3]; after DVS at 40% RH): Form 8 after | DVS loss ([3]; at 20-30% RH (desorption)): 8.0% loss at | DVS uptake ([3]; at 40-50% RH (2nd sorption)): 8.1% uptake at | moisture loss (DVS) ([3]; between 20-30% RH): ca. 8.0% | moisture uptake (DVS) ([3]; between 40-40% RH during the sorption cycles): ca. 4.9% | moisture uptake (DVS) ([3]; between 40-50% RH): 8.1% | moisture uptake (DVS) ([3]; between 50-80% RH): ca. 2.2%

CCCN1CCNCCCNC(=O)c2cc(OC)c(OC)c(c2)OCCC[C@@H](OC(=O)c2cc(OC)c(OC)c(OC)c2)CC1
7-day Stability studies: Purity compared to input [1]: Purity similar | HPLC [1, 4]: 99.86 % area | XRPD [1, 4]: 2 | HPLC ([1]; 7 days, 80° C. (closed vial)): 99.85 % area | XRPD ([1]; 7 days, 80° C. (closed vial)): 2 | HPLC ([1]; 7 days, Ambient (open vial)): 99.86 % area | XRPD ([1]; 7 days, Ambient (open vial)): 2 | HPLC ([1]; Input sample): 99.92 % area | XRPD ([1]; Input sample): 2 | 7-day Stability studies: solid form ([1]; all conditions): No change | VT-XRPD: Conv. To Form 5 at [2]: at 80-130 °C | VT-XRPD: Melt from [2]: Melt from 150 °C | VT-XRPD: input form retained at [2]: at 30-50 °C | DVS: Dehydrates [3]: Dehydrates <15% RH | DVS uptake ([3]; at 80% RH): 8.0% uptake at | moisture uptake (DVS) ([3]; between 0-10% RH, 25° C.): about 6.3% | moisture uptake (DVS) ([3]; between 10-80% RH, 25° C.): 1.7%
